Source: PubChem BioAssay (NCI)
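These data come from cells grown in 96-well plates and exposed to compound for 48 hours at five concentrations. TGI denotes the concentration required for complete inhibition of growth.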

Assays:
Experiment in all cases: NCI tumour cell line growth inhibition, 48 h
[1] = system: MCF7 breast
[2] = system: LOX IMVI melanoma
[3] = system: A498 renal
[4] = system: M14 melanoma
[5] = system: OVCAR-5 ovarian
[6] = system: OVCAR-4 ovarian
[7] = system: UACC-62 melanoma
[8] = system: SNB-19 CNS
[9] = system: UO-31 renal
[10] = system: DU-145 prostate
[11] = system: OVCAR-3 ovarian
[12] = system: T-47D breast
[13] = system: NCI-H460 lung
[14] = system: SF-268 CNS
[15] = system: TK-10 renal
[16] = system: HOP-92 NSCLC
[17] = system: SK-MEL-2 melanoma
[18] = system: RXF 393 renal
[19] = system: BT-549 breast
[20] = system: SNB-75 CNS

Row | Structure (SMILES) | TGI [1] [µM] | TGI [2] [µM] | TGI [3] [µM] | TGI [4] [µM] | TGI [5] [µM] | TGI [6] [µM] | TGI [7] [µM] | TGI [8] [µM] | TGI [9] [µM] | TGI [10] [µM] | TGI [11] [µM] | TGI [12] [µM] | TGI [13] [µM] | TGI [14] [µM] | TGI [15] [µM] | TGI [16] [µM] | TGI [17] [µM] | TGI [18] [µM] | TGI [19] [µM] | TGI [20] [µM]
1 | COc1cc(O)c2c(=O)c(O)c(-c3ccc(O)c(O)c3)oc2c1 | 60.7 | 31.9 | 14.9 | 42.6 | 47.8 | 37.6 | > 100 | > 100 | 42.1 | 25.5 | 21.8 | > 100 | 20.6 | 73.7 | 63.1 | 45.1 | – | – | – | –
2 | N=c1sc(N2CCOCC2)nn1CC(=O)c1ccccc1 | > 100 | – | – | > 100 | > 100 | > 100 | > 100 | > 100 | > 100 | > 100 | > 100 | > 100 | > 100 | > 100 | > 100 | – | > 100 | > 100 | > 100 | > 100
3 | Cc1ccc(C)c(C(=O)CC2OC(O)C(Cl)C2Cl)c1 (stereo not drawn) | – | 48.4 | > 100 | > 100 | > 100 | > 100 | > 100 | > 100 | > 100 | – | > 100 | – | > 100 | > 100 | > 100 | 77.3 | > 100 | 86 | – | > 100
4 | O=C(C[N+]1(c2ccccc2)CCOCC1)c1ccccc1 | – | > 100 | > 100 | > 100 | > 100 | > 100 | > 100 | > 100 | > 100 | > 100 | > 100 | > 100 | > 100 | > 100 | > 100 | > 100 | > 100 | > 100 | > 100 | > 100
5 | Nc1nc2c(c(-c3ccc(F)cc3)n1)COC/C2=C\c1ccc(F)cc1 | > 100 | – | > 100 | > 100 | > 100 | > 100 | > 100 | > 100 | 50 | > 100 | > 100 | – | 34 | > 100 | > 100 | > 100 | > 100 | > 100 | > 100 | 83.1
6 | O=C1C[C@@]23CCC4(CC2=CCC[C@H]3O1)OCCO4 | > 100 | > 100 | > 100 | > 100 | > 100 | > 100 | > 100 | > 100 | – | > 100 | > 100 | > 100 | > 100 | > 100 | > 100 | > 100 | > 100 | > 100 | – | –
